The target of this test is CK2 (Homo sapiens (Human), UniProt P68400). Kind of test: Radiometric CK2 kinase assay. To be noted: for inhibition at 0.1 µM: compound at 0.10 μM. It is filed as biochemical.
[1] abbreviates: inhibition of CK2 activity, ATP 10 μM.

Like-named read-outs stand apart in the source and are kept apart here.

One may read the inhibition as the share of the control response that was lost under treatment. One may read the IC50 as the concentration needed to halve the response being measured. A higher IC50 goes with weaker potency.

CK2, sequence (P68400 whole entry): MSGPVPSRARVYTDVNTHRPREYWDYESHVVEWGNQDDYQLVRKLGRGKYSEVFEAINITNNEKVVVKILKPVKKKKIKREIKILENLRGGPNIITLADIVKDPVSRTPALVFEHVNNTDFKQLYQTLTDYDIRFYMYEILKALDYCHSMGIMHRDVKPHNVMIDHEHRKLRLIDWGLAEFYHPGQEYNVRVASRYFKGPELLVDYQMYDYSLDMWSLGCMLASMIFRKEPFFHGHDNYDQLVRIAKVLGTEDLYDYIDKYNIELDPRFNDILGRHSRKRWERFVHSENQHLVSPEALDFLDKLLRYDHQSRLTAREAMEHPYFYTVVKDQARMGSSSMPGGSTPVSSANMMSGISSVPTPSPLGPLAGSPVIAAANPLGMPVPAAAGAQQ

The molecule `CC(C)C(=O)c1[nH]c2ccc(F)cc2c1-c1cn(CC2CCN(CCNS(=O)(=O)c3ccc(-c4cccnc4Cl)cc3)CC2)nn1` [AB1282, 4-(2-chloropyridin-3-yl)-N-(2-(4-((4-(5-fluoro-2-isobutyryl-1H-indol-3-yl)-1H-1,2,3-triazol-1-yl)methyl)piperidin-1-yl)ethyl)benzenesulfonamide] came in with an inhibition at 0.1 µM (ATP 10 μM) of 15%.
Under “ATP 10 μM”, `CC(C)CC(=O)c1[nH]c2ccc(F)cc2c1-c1cn(CC2CCN(CCNS(=O)(=O)c3ccc(-c4cccnc4Cl)cc3)CC2)nn1` [AB1284, 4-(2-chloropyridin-3-yl)-N-(2-(4-((4-(5-fluoro-2-(3-methylbutanoyl)-1H-indol-3-yl)-1H-1,2,3-triazol-1-yl)methyl)piperidin-1-yl)ethyl)benzenesulfonamide] came in with an inhibition at 0.1 µM of 15%.
`Cc1noc(C)c1-c1ccc(S(=O)(=O)NCCN2CCC(Cn3cc(-c4c(C(=O)C5CC5)[nH]c5ccc(F)cc45)nn3)CC2)cc1` [AB1285, N-(2-(4-((4-(2-(cyclopropanecarbonyl)-5-fluoro-1H-indol-3-yl)-1H-1,2,3-triazol-1-yl)methyl)piperidin-1-yl)ethyl)-4-(3,5-dimethylisoxazol-4-yl)benzenesulfonamide] showed an IC50 of 930 nM.
On the same count and under the same terms, the value for `CC(=O)c1[nH]c2ccc(F)cc2c1-c1cn(CC2CCN(CCNS(=O)(=O)c3ccc(-c4c(C)noc4C)cc3)CC2)nn1` [AB1286, N-(2-(4-((4-(2-acetyl-5-fluoro-1H-indol-3-yl)-1H-1,2,3-triazol-1-yl)methyl)piperidin-1-yl)ethyl)-4-(3,5-dimethylisoxazol-4-yl)benzenesulfonamide] was 430 nM; that for `CC(=O)c1[nH]c2ccc(F)cc2c1-c1cn(CC2CCN(CCNS(=O)(=O)c3ccc(-c4c(F)cccc4F)cc3)CC2)nn1` [AB1288, N-(2-(4-((4-(2-acetyl-5-fluoro-1H-indol-3-yl)-1H-1,2,3-triazol-1-yl)methyl)piperidin-1-yl)ethyl)-2′,6′-difluoro-[1,1′-biphenyl]-4-sulfonamide] was 78 nM.
In turn, `CC(=O)c1[nH]c2ccc(F)cc2c1-c1cn(CC2CCN(CCNS(=O)(=O)c3ccc(-c4cccnc4F)cc3)CC2)nn1` [AB1289, N-(2-(4-((4-(2-acetyl-5-fluoro-1H-indol-3-yl)-1H-1,2,3-triazol-1-yl)methyl)piperidin-1-yl)ethyl)-4-(2-fluoropyridin-3-yl)benzenesulfonamide] gave an IC50 under setting [1] of 440 nM. In other words, the sub-micromolar range.
Under “ATP 10 μM”, `CC(C)Cc1ccc(S(=O)(=O)NCCN2CCC(Cn3cc(-c4c(C(=O)c5cccnc5)[nH]c5ccc(F)cc45)nn3)CC2)cc1` [AB1301, N-(2-(4-((4-(5-fluoro-2-nicotinoyl-1H-indol-3-yl)-1H-1,2,3-triazol-1-yl)methyl)piperidin-1-yl)ethyl)-4-isobutylbenzenesulfonamide] returned an inhibition at 0.1 µM of 3%.
For the setting “ATP 10 μM”, `CCC(C)C(=O)c1[nH]c2ccc(F)cc2c1-c1cn(CC2CCN(CCNS(=O)(=O)c3ccc(CC(C)C)cc3)CC2)nn1` (centres unmarked) [AB1302, N-(2-(4-((4-(5-fluoro-2-(2-methylbutanoyl)-1H-indol-3-yl)-1H-1,2,3-triazol-1-yl)methyl)piperidin-1-yl)ethyl)-4-isobutylbenzenesulfonamide] showed an inhibition at 0.1 µM of 10%.
`COCc1ccccc1-c1ccc(S(=O)(=O)NCCN2CCC(Cn3cc(-c4c(C(=O)OCC(C)C)[nH]c5ccc(F)cc45)nn3)CC2)cc1` [AB1303]: it took 33 nM to reach half-maximal inhibition (IC50).
Under setting [1], `O=C(c1[nH]c2ccc(F)cc2c1-c1cn(CC2CCN(CCNS(=O)(=O)N3CCC(c4c(F)cccc4F)CC3)CC2)nn1)C1CC1` [AB1304, N-(2-(4-((4-(2-(cyclopropanecarbonyl)-5-fluoro-1H-indol-3-yl)-1H-1,2,3-triazol-1-yl)methyl)piperidin-1-yl)ethyl)-4-(2,6-difluorophenyl)piperidine-1-sulfonamide] displayed a half-inhibitory concentration (IC50) of 500 nM.
Same read-out and setting: with `O=C(c1[nH]c2ccc(F)cc2c1-c1cn(CC2CCN(CCNS(=O)(=O)Cc3ccc(C(F)(F)F)cc3)CC2)nn1)C1CC1` [AB1305, N-(2-(4-((4-(2-(cyclopropanecarbonyl)-5-fluoro-1H-indol-3-yl)-1H-1,2,3-triazol-1-yl)methyl)piperidin-1-yl)ethyl)-1-(4-(trifluoromethyl)phenyl)methanesulfonamide] the figure was 480 nM; with `CC(C)CC(=O)c1[nH]c2ccc(F)cc2c1-c1cn(CC2CCN(CCNS(=O)(=O)Cc3ccc(C(F)(F)F)cc3)CC2)nn1` [AB1306, N-(2-(4-((4-(5-fluoro-2-(3-methylbutanoyl)-1H-indol-3-yl)-1H-1,2,3-triazol-1-yl)methyl)piperidin-1-yl)ethyl)-1-(4-(trifluoromethyl)phenyl)methanesulfonamide], 450 nM.
For the molecule `CCCC(=O)c1[nH]c2ccc(F)cc2c1-c1cn(CC2CCN(CCNS(=O)(=O)Cc3ccc(C(F)(F)F)cc3)CC2)nn1` [AB1307, N-(2-(4-((4-(2-butyryl-5-fluoro-1H-indol-3-yl)-1H-1,2,3-triazol-1-yl)methyl)piperidin-1-yl)ethyl)-1-(4-(trifluoromethyl)phenyl)methanesulfonamide], at 0.1 µM the inhibition (ATP 10 μM) was 12%.
The same measure, in the same setting: with `CC(=O)c1[nH]c2ccc(F)cc2c1-c1cn(CC2CCN(CCNS(=O)(=O)Cc3ccc(C(F)(F)F)cc3)CC2)nn1` [AB1315, N-(2-(4-((4-(2-acetyl-5-fluoro-1H-indol-3-yl)-1H-1,2,3-triazol-1-yl)methyl)piperidin-1-yl)ethyl)-1-(4-(trifluoromethyl)phenyl)methanesulfonamide] the figure was 27%.
For the molecule `CC(=O)c1[nH]c2ccc(F)cc2c1-c1cn(CC2CCN(CCNS(=O)(=O)N3CCC(c4c(F)cccc4F)CC3)CC2)nn1` [AB1316, N-(2-(4-((4-(2-acetyl-5-fluoro-1H-indol-3-yl)-1H-1,2,3-triazol-1-yl)methyl)piperidin-1-yl)ethyl)-4-(2,6-difluorophenyl)piperidine-1-sulfonamide], the IC50 under setting [1] worked out at 280 nM.
Take `CC(=O)c1[nH]c2ccc(F)cc2c1-c1cn(CC2CCN(CCNS(=O)(=O)c3ccc(CC4CC4)cc3)CC2)nn1` [AB1317, N-(2-(4-((4-(2-acetyl-5-fluoro-1H-indol-3-yl)-1H-1,2,3-triazol-1-yl)methyl)piperidin-1-yl)ethyl)-4-(cyclopropylmethyl)benzenesulfonamide]: the IC50 was 310 nM.
On the same count and under the same terms, the value for `CC(=O)c1[nH]c2ccc(F)cc2c1-c1cn(C[C@H]2CCN(CCNS(=O)(=O)c3ccc(CC(C)C)cc3)C2)nn1` [AB1318] was 300 nM.
As to `CC(=O)c1[nH]c2ccc(F)cc2c1-c1cn(C[C@@H]2CCN(CCNS(=O)(=O)c3ccc(CC(C)C)cc3)C2)nn1` [AB1319], for the setting “ATP 10 μM”, at 0.1 µM the inhibition was 33%.
Still for that read-out and setting: with `CC(=O)c1[nH]c2ccc(F)cc2c1-c1cn(C2CCN(CCNS(=O)(=O)c3ccc(CC(C)C)cc3)CC2)nn1` [AB1321, N-(2-(4-(4-(2-acetyl-5-fluoro-1H-indol-3-yl)-1H-1,2,3-triazol-1-yl)piperidin-1-yl)ethyl)-4-isobutylbenzenesulfonamide] the figure was 4%.
On the same count and under the same terms, with `CC(=O)c1[nH]c2ccc(F)cc2c1-c1cn(CC2CCN(CCNS(=O)(=O)N3CCC(c4cccnc4F)CC3)CC2)nn1` [AB1322, N-(2-(4-((4-(2-acetyl-5-fluoro-1H-indol-3-yl)-1H-1,2,3-triazol-1-yl)methyl)piperidin-1-yl)ethyl)-4-(2-fluoropyridin-3-yl)piperidine-1-sulfonamide] the figure was 10%.

The values are drawn from patent publication US20230278983A1, “INDOLE DERIVATIVES AND USES THEREOF FOR TREATING A CANCER” (Universite Claude Bernard Lyon 1, priority 2020, published 2023).
